From patent publication US5070210A, “Novel ketenimines as intermediates for insecticides” (ICI Americas Inc., priority 1990, dated 1991) come the findings set out here.

What all share (type): in vivo
For assay [1], the system named is Housefly [Musca domestica]. Description: Housefly insecticidal test. Conditions: μg per 25 female flies; mortality after 48 hours. In a few lines: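 Acetone solutions (with 0.01% peanut oil) dried onto dish bottoms, then 25 female flies, 1-2 days old, caged over the residue with sugar water. Mortality scored at 48 hours; LC50 from dosage-mortality curves, in μg per 25 female flies, top level 100 μg.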

The subject of assay [2] is Tobacco Budworm [Heliothis virescens (Fabricius)] eggs. Description: Tobacco budworm egg test. Conditions: 2-day old eggs, percent in solution. The gist of the method: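 Step 1: dip 2-day old egg patches in acetone test solutions (top concentration 0.1%). Step 2: hold in dishes with rearing medium at 78° F. Step 3: record mortality after control hatch and feeding.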
Assay [3] concerns Cabbage Looper [Trichoplusia ni (Hubner)]. Description: Cabbage looper insecticidal test. Conditions: second-instar larvae, percent in solution; 3-5 days. In a few lines:
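Squash cotyledons dipped in test solution (acetone-water 50-50, ≤0.1%), dried, offered to 5 second-instar larvae; mortality after 3-5 days gives LC50.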

Assay [4] relates to Aster Leafhopper [Macrosteles fascifrens (Stal)]. Description: Aster leafhopper insecticidal test. Conditions: adults/nymphs, percent in solution; 48 hours. The protocol: The compounds in Tables 1 and 2 above were tested for insecticidal activity using the following testing procedures. LC50 values, based on the results of these tests and calculated according to dosage-mortality curves, are expressed in Table 3.
Aster Leafhopper [Macrosteles fascifrens (Stal)]
Oat seedlings (Avena sp) were grown in a commercial potting soil in cups. When the plants were approximately 10 cm tall they were thinned to three plants per cup and dipped for 2-3 seconds in 50-50 acetone-water solutions of the test compounds. When the plants had dried, a clear plastic tube was placed over them and the bottom end pressed into the cup. Ten aster leafhopper adults/nymphs were then placed in each tube and the tops of the tubes covered with white organdy cloth. Mortality counts were made after 48 hours. Test concentrations ranged from 0.05% down to that at which 50% mortality occurred. The LC50 values are expressed below in Table 3 under the heading "LH" in terms of the percent of the test compound in the solution.

For assay [5], the system named is Maize weevil [Sitophilus Zeamais (Motschulsky)]. Nature of the assay: Maize weevil insecticidal test. Conditions: adult weevils, percent in solution; 48 hours. The gist of the method: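 LC50, in percent of compound in solution, was derived from dosage-mortality curves after 48 h at about 25 °C. Ten adult weevils per container fed on four corn seeds briefly immersed in acetone:water (50:50) solutions of up to 0.01% and dried.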

In the case of `CC(C)C(=Nc1ccc(Br)c(C(F)(F)F)c1)OCc1ccc(F)c(Oc2ccc(F)cc2)c1` [Compound 364], the “LC50, HF” value in assay [1] is less than 100 µg. The “LC50, TBW, E (TBW-E)” value in assay [2] came to 0.025%. In assay [3], the “LC50, CL” value came out at 0.00045%. In addition, the “LC50, LH” value in assay [4] is less than 0.05%. Moreover, in assay [5], the “LC50, MW” value is on record as more than 0.01%.
As for `CC(C)C(=Nc1cccc([N+](=O)[O-])c1)OCc1cccc(Oc2ccc(Cl)cc2)c1` [Compound 271], the “LC50, HF” value in assay [1] is 27 µg. Besides, the “LC50, TBW, E (TBW-E)” value in assay [2] is on record as 0.1%. Besides, the “LC50, CL” value in assay [3] is 0.0004%. Further, the “LC50, LH” value in assay [4] is more than 0.05%. Besides, the “LC50, MW” value in assay [5] is on record as more than 0.01%.
Regarding `CC(C)C(=Nc1ccc(-c2ccccc2)cc1)OCc1cccc(Oc2ccccc2)c1` [Compound 186], the “LC50, HF” value in assay [1] was more than 100 µg. Further, in assay [2], the “LC50, TBW, E (TBW-E)” value is listed as more than 0.1%. For the same compound, the “LC50, CL” value in assay [3] was determined as 0.008%. The “LC50, LH” value in assay [4] was more than 0.05%. In addition, the “LC50, MW” value in assay [5] is more than 0.01%.
Taken in the same sequence, the figures for `Cc1c(COC(=Nc2ccc(C(C)(C)C)cc2)C(C)C)cccc1-c1ccccc1` [Compound 536] were more than 100 µg, more than 0.1%, less than 0.1%, more than 0.05% and more than 0.01%.
Taken in the same sequence, the figures for `Cc1cccc(N=C(OCc2cccc(Oc3ccc(Cl)cc3)n2)C(C)C)c1` [Compound 545] were less than 100 µg, more than 0.1%, more than 0.1%, more than 0.05% and more than 0.01%.
Taken in the same sequence, the figures for `CCc1ccc(N=C(OCc2ccc(F)c(Oc3ccc(F)cc3)c2)C(C)C)cc1` [Compound 361] were less than 100 µg, 0.04%, 0.001%, less than 0.05% and more than 0.01%.
Turning to `C#CCc1c(F)c(F)c(COC(=Nc2ccc3c(c2)OCO3)C(C)C)c(F)c1F` [Compound 547], the “LC50, HF” value in assay [1] was less than 100 µg. Besides, the “LC50, TBW, E (TBW-E)” value in assay [2] came to 0.05%. Also, the “LC50, CL” value in assay [3] is recorded as 0.0005%. In assay [4], the “LC50, LH” value was less than 0.05%. Besides, the “LC50, MW” value in assay [5] is recorded as more than 0.01%.
Taken in the same sequence, the figures for `C#CCc1c(F)c(F)c(COC(=Nc2cccc(C(F)(F)F)c2)C(C)C)c(F)c1F` [Compound 546] were less than 100 µg, more than 0.1%, 0.0001%, less than 0.05% and 0.0032%.
`CC(C)C(=Nc1cccc(C(F)(F)F)c1)OCc1cccc(Nc2ccc(F)cc2)c1` [Compound 513]: in assay [1], the “LC50, HF” value came to 81 µg. Besides, the “LC50, TBW, E (TBW-E)” value in assay [2] was more than 0.1%. Moreover, the “LC50, CL” value in assay [3] was determined as 0.007%. In assay [4], the “LC50, LH” value is more than 0.05%. The “LC50, MW” value in assay [5] is reported as more than 0.01%.
As to `CC(C)C(=Nc1cccc(I)c1)OCc1cccc(Oc2ccc(F)cc2)c1` [Compound 255], the “LC50, HF” value in assay [1] was found to be 16 µg. The “LC50, TBW, E (TBW-E)” value in assay [2] amounted to 0.075%. In addition, the “LC50, CL” value in assay [3] is given as 0.00017%. Moreover, the “LC50, LH” value in assay [4] is 0.0005%. In addition, the “LC50, MW” value in assay [5] is listed as more than 0.01%.
Taken in the same sequence, the figures for `CC(C)C(=Nc1ccc([N+](=O)[O-])cc1)OCc1coc(Cc2ccccc2)c1` [Compound 539] were 22 µg, more than 0.1%, more than 0.1%, more than 0.05% and more than 0.01%.
As to `CC(C)C(=Nc1cc(Cl)ccc1Cl)OCc1cccc(Oc2ccccc2)c1` [Compound 13], the “LC50, HF” value in assay [1] is more than 100 µg. Further, the “LC50, TBW, E (TBW-E)” value in assay [2] was more than 0.1%. Besides, the “LC50, CL” value in assay [3] is given as 0.014%. Moreover, the “LC50, LH” value in assay [4] is recorded as more than 0.05%. Besides, the “LC50, MW” value in assay [5] is more than 0.01%.
As for `CC(C)C(=Nc1cccc(Br)c1)OCc1cccc(Oc2ccccc2)c1` [Compound 128], the “LC50, HF” value in assay [1] was found to be 4.5 µg. For the same compound, in assay [2], the “LC50, TBW, E (TBW-E)” value was 0.037%. In assay [3], the “LC50, CL” value stood at 0.005%. The “LC50, LH” value in assay [4] was 0.003%. Further, in assay [5], the “LC50, MW” value is more than 0.01%.
Take `CSc1ccc(N=C(OCc2ccc(F)c(Oc3ccccc3)c2)C(C)C)cc1` [Compound 353]: in assay [1], the “LC50, HF” value is less than 100 µg. In assay [2], the “LC50, TBW, E (TBW-E)” value is more than 0.1%. Also, in assay [3], the “LC50, CL” value was more than 0.1%. Also, in assay [4], the “LC50, LH” value is more than 0.05%. Besides, the “LC50, MW” value in assay [5] is given as more than 0.01%.
As to `CC(C)C(=Nc1ccc(Cl)cc1)OCc1cccc(Oc2ccc(F)cc2)c1` [Compound 189], the “LC50, HF” value in assay [1] was determined as 17 µg. The “LC50, TBW, E (TBW-E)” value in assay [2] worked out at 0.07%. The “LC50, CL” value in assay [3] was found to be 0.00027%. Moreover, in assay [4], the “LC50, LH” value came to 0.002%. Moreover, the “LC50, MW” value in assay [5] was more than 0.01%.
As to `COCc1c(F)c(F)c(COC(=Nc2ccc(C(C)(C)C)cc2)C(C)C)c(F)c1F` [Compound 544], the “LC50, HF” value in assay [1] is more than 100 µg. Moreover, the “LC50, TBW, E (TBW-E)” value in assay [2] was more than 0.1%. The “LC50, CL” value in assay [3] is more than 0.1%. Further, in assay [4], the “LC50, LH” value is more than 0.05%. Also, the “LC50, MW” value in assay [5] is listed as more than 0.01%.
Take `CC(C)C(=Nc1ccc(C(F)(F)F)cc1)OCc1cccc(Oc2ccc(Cl)cc2)c1` [Compound 365]: the “LC50, HF” value in assay [1] is more than 100 µg. In addition, the “LC50, TBW, E (TBW-E)” value in assay [2] is 0.038%. Moreover, the “LC50, CL” value in assay [3] came out at 0.00025%. Also, in assay [4], the “LC50, LH” value is on record as less than 0.05%. For the same compound, the “LC50, MW” value in assay [5] is given as more than 0.01%.
For `CC(C)C(=Nc1ccc2c(c1)OCCO2)OCc1cccc(Oc2ccccc2)c1` [Compound 179] the same measures were 13 µg, more than 0.1%, 0.004%, 0.005% and more than 0.01%.
As for `CC(C)C(=Nc1ccc2c(c1)OCO2)OCc1ccnc(Oc2ccccc2)c1` [Compound 540], the “LC50, HF” value in assay [1] is more than 100 µg. In assay [2], the “LC50, TBW, E (TBW-E)” value is more than 0.1%. In addition, the “LC50, CL” value in assay [3] is less than 0.1%. Further, in assay [4], the “LC50, LH” value is given as more than 0.05%. Further, the “LC50, MW” value in assay [5] was more than 0.01%.
Regarding `CC(C)C(=Nc1ccc(F)c(Cl)c1)OCc1cccc(Nc2ccc(F)cc2)c1` [Compound 512], in assay [1], the “LC50, HF” value was determined as 35 µg. Further, the “LC50, TBW, E (TBW-E)” value in assay [2] is more than 0.1%. In addition, the “LC50, CL” value in assay [3] is on record as 0.003%. For the same compound, the “LC50, LH” value in assay [4] is listed as more than 0.05%. For the same compound, in assay [5], the “LC50, MW” value is recorded as more than 0.01%.
As for `CC(C)C(=Nc1ccc(Br)cc1F)OCc1cccc(Oc2ccc(F)cc2)c1` [Compound 351], the “LC50, HF” value in assay [1] was 26 µg. In assay [2], the “LC50, TBW, E (TBW-E)” value was more than 0.1%. The “LC50, CL” value in assay [3] is listed as 0.0007%. Also, the “LC50, LH” value in assay [4] is on record as more than 0.05%. Besides, the “LC50, MW” value in assay [5] is on record as more than 0.01%.
Taken in the same sequence, the figures for `CC(C)C(=Nc1ccc2c(c1)OCO2)OCc1cc(Oc2ccc(F)cc2)ccn1` [Compound 515] were 28 µg, more than 0.1%, 0.0015%, more than 0.05% and more than 0.01%.
As for `CC(C)(F)C(=Nc1ccc(F)c(Cl)c1)OCc1cccc(Oc2ccc(F)cc2F)c1` [Compound 315], the “LC50, HF” value in assay [1] was more than 100 µg. For the same compound, in assay [2], the “LC50, TBW, E (TBW-E)” value was more than 0.1%. The “LC50, CL” value in assay [3] is listed as 0.002%. Moreover, the “LC50, LH” value in assay [4] was more than 0.05%. In addition, the “LC50, MW” value in assay [5] is more than 0.01%.
As to `CC(C)C(=Nc1ccc2c(c1)OCO2)OCc1cccc(Oc2ccc(Cl)cc2)c1` [Compound 240], in assay [1], the “LC50, HF” value amounted to 14 µg. Besides, in assay [2], the “LC50, TBW, E (TBW-E)” value was 0.04%. For the same compound, in assay [3], the “LC50, CL” value is listed as 0.0003%. Moreover, the “LC50, LH” value in assay [4] is more than 0.05%. In assay [5], the “LC50, MW” value is listed as more than 0.01%.
Regarding `CC(C)C(=Nc1ccc(F)cc1)OCc1cccc(Oc2ccc(Br)cc2)c1` [Compound 259], the “LC50, HF” value in assay [1] came out at 15 µg. For the same compound, the “LC50, TBW, E (TBW-E)” value in assay [2] amounted to 0.05%. Moreover, the “LC50, CL” value in assay [3] is reported as 0.0003%. The “LC50, LH” value in assay [4] is more than 0.05%. Moreover, the “LC50, MW” value in assay [5] is reported as more than 0.01%.
As for `CC(C)C(=Nc1ccc(F)c(Cl)c1)OCc1cccc(Oc2ccc(Br)cc2)n1` [Compound 492], in assay [1], the “LC50, HF” value was 15 µg. In assay [2], the “LC50, TBW, E (TBW-E)” value was determined as 0.015%. The “LC50, CL” value in assay [3] came out at 0.00028%. Also, the “LC50, LH” value in assay [4] is given as more than 0.05%. In addition, in assay [5], the “LC50, MW” value was more than 0.01%.
